In ChEMBL document CHEMBL5236655, “Role of symmetry in 3,3-diphenyl-1,3-dihydroindol-2-one derivatives as inhibitors of translation initiation” (Bioorg Med Chem Lett, 2023) one finds IC50 and fold change (FC) data, which are given here for 36 compounds.

A short description of assay [1]: Antiproliferative activity against human CRL-2813 cells incubated for 5 days by SRB assay. It is filed as functional, cell-based. The settings on record: CRL2813, 120 h. For orientation: In SRB staining, fixed cells bind dye roughly in proportion to their protein.
Assay [2] in a line: Antiproliferative activity against human CRL-2351 cells incubated for 5 days by SRB assay. It is filed as functional, cell-based. The note with it: CRL-2351, 120 h.
The target of assay [3] is Interferon-induced, double-stranded RNA-activated protein kinase (Homo sapiens) (UniProt P19525). Put plainly: Induction of eIF2alpha phosphorylation (unknown origin) assessed as fold increase in ATF-4 stimulation at 20 uM by dual luciferase reporter assay. The note with it: filed as activator.
Assay [4] has the same target. Put plainly: Induction of eIF2alpha phosphorylation (unknown origin) assessed as fold increase in ATF-4 stimulation at 10 uM by dual luciferase reporter assay. On the technique in general: Reporter assays use an easily measured gene product as a stand-in for the process of interest.
Assay [5] shares this target. Put plainly: Induction of eIF2alpha phosphorylation in human CRL-2813 cells assessed as fold increase in CHOP expression incubated for 6 hrs by RT-PCR analysis. The note with it: filed as activator, dose 10.0 µM. It is filed as cell-based.
Assay [6] shares this target. Put plainly: Induction of eIF2alpha phosphorylation (unknown origin) assessed as fold increase in ATF-4 stimulation at 5 uM by dual luciferase reporter assay. The note with it: filed as activator.
Assay [7] has the same target. Put plainly: Induction of eIF2alpha phosphorylation (unknown origin) assessed as fold increase in ATF-4 stimulation at 40 uM by dual luciferase reporter assay. The settings on record: filed as activator.
For assay [8] the target is unchanged. Put plainly: Induction of eIF2alpha phosphorylation (unknown origin) assessed as fold increase in ATF-4 stimulation at 80 uM by dual luciferase reporter assay. The note with it: filed as activator.
Assay [9] shares this target. Put plainly: Induction of eIF2alpha phosphorylation (unknown origin) assessed as fold increase in ATF-4 stimulation at 2.5 uM by dual luciferase reporter assay. The settings on record: filed as activator.

Sequence of Interferon-induced, double-stranded RNA-activated protein kinase (Homo sapiens) (P19525 whole entry): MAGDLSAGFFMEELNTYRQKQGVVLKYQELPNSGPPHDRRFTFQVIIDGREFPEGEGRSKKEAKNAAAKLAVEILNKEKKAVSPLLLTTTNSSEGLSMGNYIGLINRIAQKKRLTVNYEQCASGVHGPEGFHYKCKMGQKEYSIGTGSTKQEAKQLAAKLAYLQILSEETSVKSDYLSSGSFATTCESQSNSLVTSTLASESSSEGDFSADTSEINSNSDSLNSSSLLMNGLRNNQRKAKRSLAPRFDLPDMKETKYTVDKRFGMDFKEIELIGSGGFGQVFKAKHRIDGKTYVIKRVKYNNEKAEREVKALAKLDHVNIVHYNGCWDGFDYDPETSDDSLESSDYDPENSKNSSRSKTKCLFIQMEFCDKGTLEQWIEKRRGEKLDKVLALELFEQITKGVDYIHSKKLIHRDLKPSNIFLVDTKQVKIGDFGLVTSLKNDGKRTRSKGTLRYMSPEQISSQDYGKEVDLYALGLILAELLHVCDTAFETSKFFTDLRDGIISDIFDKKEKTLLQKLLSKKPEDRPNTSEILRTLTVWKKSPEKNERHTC

For the compound `CC(C)(C)c1ccc(O)c(C2(c3cc(C(C)(C)C)ccc3OCCN3CCNCC3)C(=O)Nc3ccccc32)c1` (stereo not drawn), the IC50 (as a rule, the concentration that inhibits the measured activity by half) in assay [1] came to 1500 nM; in assay [2], 900 nM. Besides, in assay [3], the fold change (FC) stood at 15.1.
As to `CC(C)(C)c1ccc(O)c(C2(c3cc(C(C)(C)C)ccc3OCCN3CCCC3)C(=O)Nc3ccccc32)c1` (stereo not drawn), the IC50 stood at 10700 nM in [1] and 1000 nM in assay [2]. For the same compound, the fold change (FC) in assay [4] (filed as activator) came to 2.73.
Consider `CCN(CC)CCOc1ccc(C(C)(C)C)cc1C1(c2cc(C(C)(C)C)ccc2O)C(=O)Nc2ccccc21` (stereo not drawn), for which the results for the IC50 in assay [1] and in [2] were 1500 nM and 600 nM, respectively. The fold change (FC) in assay [3] came out at 16.7.
In the case of `CC(C)(C)c1ccc(OCCN2CCOCC2)c(C2(c3cc(C(C)(C)C)ccc3OCCN3CCOCC3)C(=O)Nc3ccccc32)c1`, the figures for the IC50 in assay [1] and in assay [2] were 2400 nM and 1680 nM, respectively. The fold change (FC) in assay [5] worked out at 3; in assay [3], 4.98.
Turning to `CC(C)(C)c1ccc(OCCN2CCCC2)c(C2(c3cc(C(C)(C)C)ccc3OCCN3CCCC3)C(=O)Nc3ccccc32)c1`, the concentration for half-maximal inhibition (IC50) in assay [1] turned out to be 800 nM; in [2], 650 nM. In addition, the fold change (FC) in [6] is 13.9.
Take `CC(C)(C)c1ccc(O)c(C2(c3cc(C(C)(C)C)ccc3O)C(=O)N(CCN3CCOCC3)c3ccccc32)c1`: the half-maximal inhibitory concentration (IC50) amounted to 1600 nM in assay [1] and 2200 nM in assay [2]. For the same compound, the fold change (FC) in assay [5] came out at 3; in assay [7], 4.3.
For `CN(C)CCOc1ccc(C(C)(C)C)cc1C1(c2cc(C(C)(C)C)ccc2O)C(=O)Nc2ccccc21` (stereo not drawn), the IC50 in assay [1] was determined as 1200 nM; in assay [2], 1900 nM. In assay [3], the fold change (FC) turned out to be 4.65.
The matching figures for `CC(C)(C)c1ccc(O)c(C2(c3cc(C(C)(C)C)ccc3OCCN3CCCCC3)C(=O)Nc3ccccc32)c1` (stereo not drawn): 3350 nM, 700 nM and 4.15.
With `CN(C)CCN1C(=O)C(c2cc(C(C)(C)C)ccc2O)(c2cc(C(C)(C)C)ccc2O)c2ccccc21`, the half-inhibitory concentration (IC50) in assay [1] was greater than 20000 nM; in [2] it was 2700 nM. For the same compound, the fold change (FC) was 3 in assay [5] and 7.12 in assay [3].
As for `CC(C)(C)c1ccc(O)c(C2(c3cc(C(C)(C)C)ccc3OCCN3CCOCC3)C(=O)N(CCN3CCOCC3)c3ccccc32)c1` (stereo not drawn), the IC50 in assay [1] is 2000 nM; in [2], 3600 nM. The fold change (FC) in [8] turned out to be 31.9.
Consider `CN(C)CCOc1ccc(C(C)(C)C)cc1C1(c2cc(C(C)(C)C)ccc2OCCN(C)C)C(=O)Nc2ccccc21`, for which the figures for the IC50 in assay [1] and in assay [2] were 12500 nM and 10200 nM, respectively. Moreover, in assay [7], the fold change (FC) came out at 1.34.
In the case of `CC(C)(C)c1ccc(OCCN2CCOCC2)c(C2(c3cc(C(C)(C)C)ccc3OCCN3CCOCC3)C(=O)N(CCN3CCOCC3)c3ccccc32)c1`, the figures for the IC50 in assay [1] and in assay [2] were 2700 nM and 2300 nM, respectively. Besides, the values for the fold change (FC) in assay [5] and in assay [7] were 3 and 10.8, respectively.
As to `CC(C)(C)c1ccc(O)c(C2(c3cc(C(C)(C)C)ccc3OCCBr)C(=O)N(CCBr)c3ccccc32)c1` (stereo not drawn), the IC50 turned out to be 700 nM in assay [1] and 4600 nM in [2]. In [8], the fold change (FC) was determined as 1.99.
In assay [2], `CN1CCN(CCOc2ccc(C(C)(C)C)cc2C2(c3cc(C(C)(C)C)ccc3OCCN3CCN(C)CC3)C(=O)N(CCN3CCN(C)CC3)c3ccccc32)CC1` showed an IC50 of 600 nM. In addition, the fold change (FC) in [4] (filed as activator) came to 6.73.
As for `CC(C)(C)c1ccc(O)c(C2(c3cc(C(C)(C)C)ccc3OCCO)C(=O)Nc3ccccc32)c1` (stereo not drawn), the IC50 amounted to 2900 nM in assay [1] and 8800 nM in assay [2]. Besides, the fold change (FC) in assay [7] stood at 10.8.
As to `CCN(CC)CCOc1ccc(C(C)(C)C)cc1C1(c2cc(C(C)(C)C)ccc2OCCN(CC)CC)C(=O)N(CCN(CC)CC)c2ccccc21`, the IC50 in assay [1] was 720 nM; in [2], no more than 540 nM. Besides, the fold change (FC) in assay [9] is 14.3.
On to `CC(=O)OCCOc1ccc(C(C)(C)C)cc1C1(c2cc(C(C)(C)C)ccc2OCCOC(C)=O)C(=O)Nc2ccccc21`, for which the 50% inhibitory concentration (IC50) in assay [1] stood at 2000 nM; in assay [2], 2500 nM. Further, the fold change (FC) in assay [8] was found to be 2.07.
Turning to `CC(C)(C)c1ccc(O)c(C2(c3cc(C(C)(C)C)ccc3OCCN3CCCC3)C(=O)N(CCN3CCCC3)c3ccccc32)c1` (stereo not drawn), the IC50 turned out to be 7250 nM in assay [1] and 3600 nM in assay [2]. Also, the fold change (FC) in [7] turned out to be 9.09.
As for `CCN(CC)CCOc1ccc(C(C)(C)C)cc1C1(c2cc(C(C)(C)C)ccc2OCCN(CC)CC)C(=O)Nc2ccccc21`, the half-inhibitory concentration (IC50) in assay [1] was 1000 nM; in [2], no more than 540 nM. Also, in assay [4], the fold change (FC) was less than 0.54.
For the compound `CC(C)(C)c1ccc(OCCO)c(C2(c3cc(C(C)(C)C)ccc3OCCO)C(=O)Nc3ccccc32)c1`, the IC50 in assay [1] was 2900 nM; in assay [2], 2700 nM. The fold change (FC) in assay [3] was found to be 3.42.
Take `CC(C)(C)c1ccc(OCCN2CCCCC2)c(C2(c3cc(C(C)(C)C)ccc3OCCN3CCCCC3)C(=O)Nc3ccccc32)c1`: the IC50 in assay [1] was determined as 11600 nM; in assay [2], 2140 nM. The fold change (FC) in assay [8] was determined as 5.91.
Regarding `CC(C)(C)c1ccc(O)c(C2(c3cc(C(C)(C)C)ccc3OCCN3CCOCC3)C(=O)Nc3ccccc32)c1` (stereo not drawn), the IC50 is 1650 nM in [1] and no more than 540 nM in assay [2]. For the same compound, the fold change (FC) in [5] amounted to 3; in assay [7] it was 5.69.
As for `CN1CCN(CCOc2ccc(C(C)(C)C)cc2C2(c3cc(C(C)(C)C)ccc3OCCN3CCN(C)CC3)C(=O)Nc3ccccc32)CC1`, the IC50 in [1] is 740 nM; in assay [2] it was 200 nM. Besides, in [4] (filed as activator), the fold change (FC) turned out to be 9.7.
Turning to `CC(C)(C)c1ccc(OCCN2CCCC2)c(C2(c3cc(C(C)(C)C)ccc3OCCN3CCCC3)C(=O)N(CCN3CCCC3)c3ccccc32)c1`, the IC50 in [1] was found to be 1470 nM; in assay [2] it was 550 nM. In addition, in [9], the fold change (FC) is 12.1.
With `CN(C)CCN1C(=O)C(c2cc(C(C)(C)C)ccc2O)(c2cc(C(C)(C)C)ccc2OCCN2CCCC2)c2ccccc21` (stereo not drawn), the IC50 in assay [1] and in [2] was no more than 540 nM each time. In assay [4] (filed as activator), the fold change (FC) is 9.08.
As to `COCOc1ccc(C(C)(C)C)cc1C1(c2cc(C(C)(C)C)ccc2O)C(=O)Nc2ccccc21` (stereo not drawn), the concentration for half-maximal inhibition (IC50) worked out at 2200 nM in assay [1] and 4200 nM in assay [2]. In [7], the fold change (FC) was 1.21.
The matching figures for `CC(C)(C)c1ccc(OCCN2CCNCC2)c(C2(c3cc(C(C)(C)C)ccc3OCCN3CCNCC3)C(=O)Nc3ccccc32)c1`: 1500 nM, 800 nM and 11.4.
Consider `CN(C)CCOc1ccc(C(C)(C)C)cc1C1(c2cc(C(C)(C)C)ccc2O)C(=O)N(CCN(C)C)c2ccccc21` (stereo not drawn), for which the IC50 in [1] is 900 nM; in assay [2] it was 300 nM. Further, the fold change (FC) in assay [4] (filed as activator) turned out to be 14.3.
Regarding `COCCOc1ccc(C(C)(C)C)cc1C1(c2cc(C(C)(C)C)ccc2OCCOC)C(=O)Nc2ccccc21`, the IC50 in [1] was found to be 700 nM; in assay [2] it was 4600 nM. Further, the fold change (FC) in assay [8] was found to be 1.58.
Regarding `CN(C)CCN1C(=O)C(c2cc(C(C)(C)C)ccc2OCCN2CCCC2)(c2cc(C(C)(C)C)ccc2OCCN2CCCC2)c2ccccc21`, the results for the IC50 in [1] and in assay [2] were 800 nM and 540 nM, respectively. For the same compound, the fold change (FC) in assay [9] is 11.8.
With `CC(C)(C)c1ccc(O)c(C2(c3cc(C(C)(C)C)ccc3OCCBr)C(=O)Nc3ccccc32)c1` (stereo not drawn), the IC50 in assay [1] was determined as 1000 nM; in [2] it was 2400 nM. Further, in assay [7], the fold change (FC) turned out to be 12.9.
As to `CC(C)(C)c1ccc(O)c(C2(c3cc(C(C)(C)C)ccc3O)C(=O)Nc3ccccc32)c1`, the IC50 in assay [1] came to 10200 nM; in assay [2], 2800 nM. For the same compound, the fold change (FC) was 3 in assay [5] and 5.2 in [4] (filed as activator).
Turning to `CC(C)(C)c1ccc(O)c(C2(c3cc(C(C)(C)C)ccc3O)C(=O)N(CCBr)c3ccccc32)c1`, the IC50 in assay [1] came out at 1400 nM; in assay [2], 1500 nM. The fold change (FC) in assay [7] was found to be 9.6.
`CN(C)CCOc1ccc(C(C)(C)C)cc1C1(c2cc(C(C)(C)C)ccc2OCCN(C)C)C(=O)N(CCN(C)C)c2ccccc21`: the results for the concentration for half-maximal inhibition (IC50) in assay [1] and in assay [2] were 700 nM and 500 nM, respectively. In addition, the fold change (FC) in [9] amounted to 16.8.
In the case of `CC(=O)OCCOc1ccc(C(C)(C)C)cc1C1(c2cc(C(C)(C)C)ccc2O)C(=O)Nc2ccccc21` (stereo not drawn), the IC50 was determined as 1600 nM in assay [1] and 2700 nM in assay [2]. For the same compound, the fold change (FC) in assay [7] was determined as 8.59.
As for `CN1CCN(CCOc2ccc(C(C)(C)C)cc2C2(c3cc(C(C)(C)C)ccc3O)C(=O)Nc3ccccc32)CC1` (stereo not drawn), the figures for the half-inhibitory concentration (IC50) in assay [1] and in assay [2] were 1400 nM and 750 nM, respectively. Moreover, in [3], the fold change (FC) was determined as 24.6.
